Assays:
KRAS G12D = KRAS G12D (Homo sapiens, UniProt P01116, G12D); experiment: SOS-catalyzed nucleotide exchange assay, KRAS G12D (Procedure A); assay type: biochemical; settings: guanine nucleotide exchange (GNE)
In short: (§1)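 Compounds were preincubated 60 min with a biotinylated RAS·Bodipy-GDP/Tb-streptavidin TR-FRET complex, and exchange was started with human SOS plus 3 mM GTP at RT. RAS/SOS: G12C 3 nM/40 nM, WT and G12D 1 nM/40 nM, all 60 min; G13D 1.25 nM/0 nM, 30 min. 520/495 ratio normalized to DMSO and saturating inhibitor, four-parameter fit.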

KRAS WT = KRAS WT (Homo sapiens, UniProt P01116); experiment: SOS-catalyzed nucleotide exchange assay, KRAS WT (Procedure A); assay type: biochemical; settings: GNE
Chain of KRAS WT (P01116 with tags, fused parts or gaps isoform P01116-2): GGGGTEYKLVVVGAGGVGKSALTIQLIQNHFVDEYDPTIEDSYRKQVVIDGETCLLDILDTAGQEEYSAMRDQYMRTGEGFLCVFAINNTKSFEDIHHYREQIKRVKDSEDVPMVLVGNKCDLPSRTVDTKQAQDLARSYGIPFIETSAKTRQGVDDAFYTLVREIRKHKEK
In short: as §1

KRAS G12V = KRAS G12V (Homo sapiens, UniProt P01116, G12V); experiment: SOS-catalyzed nucleotide exchange assay, KRAS G12V (Procedure A); assay type: biochemical; settings: GNE
Chain of KRAS G12V (P01116 with tags, fused parts or gaps isoform P01116-2 G12V): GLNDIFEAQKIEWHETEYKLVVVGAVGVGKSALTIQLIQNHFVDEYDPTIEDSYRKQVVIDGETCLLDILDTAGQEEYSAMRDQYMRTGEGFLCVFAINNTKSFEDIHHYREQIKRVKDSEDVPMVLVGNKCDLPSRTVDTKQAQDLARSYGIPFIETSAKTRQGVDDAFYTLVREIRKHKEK
In short: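 Biotinylated KRAS G12V was loaded with Bodipy-GDP alongside Terbium-streptavidin to form a TR-FRET complex, which was preincubated with compounds for 60 minutes in 384-well plates. Human SOS protein and unlabeled GTP were then added for 90 minutes, giving final concentrations of 1.25 nM KRAS-G12V, 160 nM SOS and 3 mM GTP. The 520/495 nm emission ratio was read on an Envision.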

AsPC-1 cells = biological target: T1, AsPC-1 cells (Homo sapiens, UniProt P01116, G12D); experiment: Cellular phospho-ERK assay, AsPC-1 cells (KRAS G12D); assay type: cell-based; settings: 2 hours, read-out: AsPC1 pERK IC50
T1 construct: p-ERK/total ERK AlphaSureFire read-out
T1 sequence (P01116 1-188 isoform P01116-2 G12D): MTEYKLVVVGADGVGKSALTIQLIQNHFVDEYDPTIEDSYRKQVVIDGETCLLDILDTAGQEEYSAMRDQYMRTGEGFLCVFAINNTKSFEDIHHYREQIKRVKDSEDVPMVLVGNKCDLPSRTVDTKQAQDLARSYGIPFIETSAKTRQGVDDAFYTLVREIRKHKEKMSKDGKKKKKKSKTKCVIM
In short: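 PANC08.13 or AsPC-1 cells (homozygous KRAS G12D) were seeded overnight, then treated for 2 h at 37 °C with a 10-point 1:3 titration from 30 μM. Lysates were assayed by AlphaLISA SureFire for p-ERK and total ERK. IC50 came from a 4-parameter fit of the p-ERK/total ERK ratio.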

Chain of KRAS G12D (P01116 with tags, fused parts or gaps isoform P01116-2 G12D): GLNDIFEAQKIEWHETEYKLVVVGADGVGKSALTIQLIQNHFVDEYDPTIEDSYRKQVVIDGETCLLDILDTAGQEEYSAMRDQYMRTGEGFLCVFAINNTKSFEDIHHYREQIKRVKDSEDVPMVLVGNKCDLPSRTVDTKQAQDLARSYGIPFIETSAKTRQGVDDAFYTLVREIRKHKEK

Row | Structure (SMILES) | IC50 (KRAS G12D) | IC50 (KRAS WT) | IC50 (KRAS G12V) | IC50 (AsPC-1 cells)
1 | C#Cc1c(F)ccc2cc3[nH]ncc3c(-c3nccc4c3sc3nc(OC[C@]5(CN6CCC7(CC6)CC(Cc6cn(C)nn6)C7)CC5(F)F)nc(N5C[C@H]6CC[C@@H](C5)N6)c34)c12 [Ex-106, 4-((1R,5S)-3,8-diazabicyclo[3.2.1]octan-3-yl)-2-(((R)-2,2-difluoro-1-((2-((1-methyl-1H-1,2,3-triazol-4-yl)methyl)-7-azaspiro[3.5]nonan-7-yl)methyl)cyclopropyl)methoxy)-8-(5-ethynyl-6-fluoro-1H-benzo[f]indazol-4-yl)pyrido[4′,3′:4,5]thie-no[2,3-d]pyrimidine] | 2.03 nM | 877 nM | 1700 nM | 74 nM
2 | C#Cc1c(F)ccc2cc3[nH]ncc3c(-c3nccc4c3sc3nc(OC[C@]5(CN6CCC(CCc7cn(C)nn7)CC6)CC5(F)F)nc(N5C[C@H]6CC[C@@H](C5)N6)c34)c12 [Ex-105, 4-((1R,5S)-3,8-diazabicyclo[3.2.1]octan-3-yl)-2-(((R)-2,2-difluoro-1-((4-(2-(1-methyl-1H-1,2,3-triazol-4-yl)ethyl)piperidin-1-yl)methyl)cyclopropyl)methoxy)-8-(5-ethynyl-6-fluoro-1H-benzo[f]indazol-4-yl)pyrido[4′,3′:4,5]thie-no[2,3-d]pyrimidine] | 1.6 nM | 279 nM | 475 nM | 67 nM
3 | F[C@H]1CN2CCC[C@@]2(COc2nc(N3C[C@H]4CC[C@@H](C3)N4)c3c(n2)sc2c(-c4c5cn[nH]c5cc5cccc(Cl)c45)nccc23)C1 [Ex-58, 4-((1R,5S)-3,8-diazabicyclo[3.2.1]octan-3-yl)-8-(5-chloro-1H-benzo[/]indazol-4-yl)-2-(((2R,7aS)-2-fluorotetrahydro-1H-pyrrolizin-7a(5H)-yl)methoxy)pyrido[4′,3′:4,5]thieno[2,3-d]pyrimidine] | 9.3 nM | 1830 nM | 2560 nM | 447 nM

Next, values leading:

Row | IC50 (KRAS G12D) | IC50 (KRAS WT) | IC50 (KRAS G12V) | IC50 (AsPC-1 cells) | Structure (SMILES)
4 | 1.62 nM | 259 nM | 248 nM | 22.8 nM | C#Cc1c(F)ccc2cc3[nH]ncc3c(-c3nccc4c3sc3nc(OC[C@]5(CN(C)C)CC5(F)F)nc(N5C[C@H]6CC[C@@H](C5)N6)c34)c12 [Ex-96, 1-((1R)-1-(((4-((1R,5S)-3,8-diazabicyclo[3.2.1]octan-3-yl)-8-(5-ethynyl-6-fluoro-1H-benzo[f]indazol-4-yl)pyrido[4′,3′:4,5]thie-no[2,3-d]pyrimidin-2-yl)oxy)methyl)-2,2-difluorocyclopropyl)-N,N-dimethylmethanamine]
5 | 3.23 nM | 800 nM | 1030 nM | 51.8 nM | C#Cc1c(F)ccc2cc3[nH]ncc3c(-c3nccc4c3sc3nc(OC[C@]5(CN6CCC6)CC5(F)F)nc(N5C[C@H]6CC[C@@H](C5)N6)c34)c12 [Ex-107, 2-(((R)-1-(azetidin-1-ylmethyl)-2,2-difluorocyclopropyl)meth-oxy)-4-((1R,5S)-3,8-diazabicyclo[3.2.1]octan-3-yl)-8-(5-ethynyl-6-fluoro-1H-benzo[f]indazol-4-yl)pyrido[4′,3′:4,5]thie-no[2,3-d]pyrimidine]
6 | 2480 nM | > 11100 nM | > 11100 nM | > 30000 nM | Cc1cc2[nH]ncc2c(-c2nccc3c2sc2nc(OC[C@H]4C[C@H](S(C)(=O)=O)C4)nc(N4C[C@H]5CC[C@@H](C4)N5)c23)c1C(F)(F)F [Ex-29, 4-((1R,5S)-3,8-diazabicyclo[3.2.1]octan-3-yl)-8-(6-methyl-5-(trifluoromethyl)-1H-indazol-4-yl)-2-(((1r,3R)-3-(methylsulfonyl)cyclobutyl)meth-oxy)pyrido[4′,3′:4,5] thieno[2,3-d]pyrimidine]

Reference: patent US20260347372A1, “SMALL MOLECULE INHIBITORS OF KRAS G12D MUTANT” (MERCK SHARP & DOHME LLC, priority 2023, published 2026)
